Values quoted from earlier work as cited in US6645930B1, “Clean room wipes for neutralizing caustic chemicals” (EKC Technology, Inc., priority 2000, dated 2003).

Experiments:
[1] = at 25° C.
[2] = for pKa3: third ionization constant; for pKa1: first ionization constant

vapor pressure [1] | pKa2 ([2]; second ionization constant) | Compound | pKa3 [2] | pKa1 [2]
0.02 kPascal |  | CC(O)CO (stereo not drawn) [propylene glycol] |  | 
 |  | O=C(O)CC(O)(CC(=O)O)C(=O)O [Citric, citric acid] | 6.9 | 
 | 4.7 | O=C(O)[C@H](O)[C@@H](O)[C@H](O)[C@H](O)CO [Gluconic, gluconic acid] |  | 3.5
 |  | O=C(O)c1cc(O)c(O)c(O)c1 [Gallic, gallic acid] | 8.9 | 4.2
